Our source for the GI50 and TGI values is PubChem BioAssay (NCI).

Where “and” joins values, the source holds several entries; their conditions need not be identical. Equal values may be shown once.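 In this assay, cells in 96-well plates receive the compound at five concentrations for 48 hours. Endpoints are linearly interpolated between the surrounding concentrations. The concentration for 50% growth inhibition is given as GI50. TGI is the concentration that stops growth completely.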 Bounds are passed on as bounds.

Holding throughout (assay): NCI tumour cell line growth inhibition, 48 h
The test system of assay [1] is EKVX NSCLC.
The test system of assay [2] is OVCAR-4 ovarian.
Assay [3] relates to IGROV1 ovarian.
Assay [4] concerns UACC-257 melanoma.
Assay [5] has as its system OVCAR-8 ovarian.
Assay [6] has as its system SNB-19 CNS.
Assay [7] concerns NCI-H460 lung.
For assay [8], the system named is SK-MEL-2 melanoma.
Assay [9] has as its system SW-620 colon.
Assay [10] concerns RPMI-8226 leukemia.

As to `CC1OC(O[C@@H]2C=C3CC[C@@H]4[C@H](CC[C@]5(C)[C@@H](c6ccc(=O)oc6)CC[C@]45O)[C@@]3(C)CC2)C(O)C(OC2OC(CO)C(O)C(O)C2O)C1O` (some centres undefined), the GI50 is 0.000339 µM in assay [1], 0.00126 µM in [4], 0.00038 µM in assay [6] and 0.000866 µM in assay [8]. Further, the TGI in assay [1] was 0.00534 µM and 0.0254 µM; in assay [2], 0.00798 µM; in assay [3], 0.0219 µM and 0.0562 µM; in assay [4], 0.0441 µM and 0.0265 µM; in [5], 0.0162 µM and 0.0299 µM; in assay [6] it was 0.113 µM and 0.0674 µM. For the same molecule, the TGI is 0.00143 µM in assay [7]; 0.0409 µM and 0.0257 µM in assay [8]; 0.0348 µM and 0.0288 µM in assay [9].

In the case of `Cc1cc(O)c2c(c1)C(C1c3cccc(O)c3C(=O)c3c(O)cc(C)cc31)c1cccc(O)c1C2=O` (centres undefined), the TGI in assay [1] is 4.15 µM; in assay [10] it was 0.8 µM; in assay [2], 5.1 µM; in [3] it was 4.56 µM; in assay [4] it was 1.25 µM; in assay [5] it was 16.1 µM. Further, the TGI in [6] came out at 17.1 µM; in assay [7], 12.8 µM; in assay [8], 0.692 µM; in assay [9], 12.9 µM.

For the molecule `O=S(O)c1cc(Cl)c(O)c(Cl)c1`, the TGI in assay [1], in assay [2], in assay [4], in assay [6], in assay [7] and in [8] was more than 100 µM each time.

Take `CC(=O)OCC1OC(N=[N+]=[N-])C(OC(C)=O)C(OC(C)=O)C1OC1OC(COC(C)=O)C(OC(C)=O)C(OC(C)=O)C1OC(C)=O` (centres undefined): the TGI in assay [1], in [10], in [2], in [3], in assay [4] and in assay [5] was more than 100 µM each time. For the same molecule, the TGI in assay [6], in assay [7], in [8] and in [9] was more than 100 µM each time.

Turning to `O=C1C(=C([O-])c2ccccc2)C(=O)c2ccccc21.O=C1C(=C([O-])c2ccccc2)C(=O)c2ccccc21.[Ni+2]`, the GI50 in assay [1] was 44.4 µM; in assay [10] it was more than 100 µM; in [2] it was 61.6 µM; in assay [3], 48.2 µM; in [4], 83.3 µM; in [5], 48.1 µM. In addition, the GI50 was 58.8 µM in assay [6], 33.9 µM in assay [7], 98 µM in assay [8] and 58.9 µM in assay [9]. Further, the TGI in assay [1], in assay [10], in assay [2], in assay [3], in assay [4] and in [5] was more than 100 µM in each case. Further, the TGI in assay [6], in assay [7], in assay [8] and in assay [9] was more than 100 µM in each case.

Turning to `COc1ccc([I+]c2ccc(OC)cc2)cc1`, the TGI in [1], in [10], in [2], in assay [3], in assay [4] and in assay [5] was more than 100 µM each time. The TGI in assay [6], in assay [7], in assay [8] and in assay [9] was more than 100 µM throughout. Also, the GI50 in assay [10] was 4.16 µM; in [2], 3.33 µM; in assay [3], 15.7 µM; in assay [5] it was 3.27 µM; in [6] it was 20.9 µM; in assay [7] it was 5.28 µM. The results for the GI50 in assay [8] and in assay [9] were 43.9 µM and 6.66 µM, respectively.

For the molecule `Cn1c(=O)c2[nH]c(SC/C(=N/O)c3ccc(Br)cc3)nc2n(C)c1=O`, the GI50 in assay [1] is 2.76 µM; in assay [10] it was 34.7 µM; in [3], 2.27 µM; in assay [6] it was 2.94 µM; in assay [8] it was 2.08 µM; in assay [9], more than 100 µM. For the same molecule, the TGI in assay [1] was more than 100 µM; in assay [10] it was more than 100 µM; in assay [3] it was 5.55 µM; in [6], 8.35 µM; in [8] it was 4.26 µM; in assay [9], more than 100 µM.

In the case of `COc1cc2c[n+](C)c3c4cc(OC)c(OCc5ccccc5)cc4c(OCc4ccccc4)cc3c2cc1OC`, the TGI in assay [1] was more than 100 µM; in assay [10], more than 86 µM; in [2], more than 55 µM; in [3], 13.2 µM; in [4] it was 14.4 µM; in assay [5] it was 19.6 µM. Besides, the TGI was 15.2 µM in assay [6], more than 100 µM in [7], 6.29 µM in [8] and 20.5 µM in assay [9].

As to `O=c1[nH]c(=O)n(C2CC(O)C(CO)O2)cc1Br` (centres undefined), the TGI in assay [1], in assay [10], in assay [2], in [3], in assay [4] and in assay [5] was more than 100 µM throughout. In addition, the TGI in assay [6], in [7], in assay [8] and in assay [9] was more than 100 µM throughout.

Regarding `COc1cc(O)c(Cc2ccccc2O)c(O)c1C(=O)CCc1ccccc1`, the TGI is 22.5 µM in assay [1]; 9.8 µM in [10]; 18.5 µM in assay [2]; 29.8 µM in assay [3]; 16.1 µM in [4]; 28.1 µM in assay [5]. Besides, the TGI in [6] is 26.4 µM; in assay [7] it was 12.2 µM; in assay [8], 12.8 µM; in assay [9] it was 29.4 µM.

Take `COc1ccc2c3/c(=C\c4ccc(N(C)C)cc4)c4ccccc4n3[n+](C)c2c1`: the GI50 in [1] was 0.11 µM; in assay [10], less than 0.0112 µM; in assay [2], 0.987 µM; in assay [3] it was 0.24 µM; in assay [4], 0.0346 µM; in assay [5] it was 0.0474 µM. For the same molecule, the GI50 in [7] was 0.16 µM; in assay [9], 0.0438 µM. Further, the TGI in assay [1] is 4.16 µM; in assay [10], 0.136 µM; in [2] it was 6.46 µM; in assay [3], more than 100 µM; in assay [4] it was 0.424 µM; in assay [5], 2.33 µM. The TGI was 28.8 µM in assay [7] and more than 100 µM in [9].

Take `COc1ccccc1C(=O)OCC1CCCN2CCCCC12` (centres undefined): the TGI in assay [1] is more than 100 µM; in [10], more than 100 µM; in assay [2], more than 100 µM; in assay [4] it was more than 100 µM; in [5] it was 45.8 µM; in [6], more than 100 µM. In addition, the results for the TGI in assay [7], in assay [8] and in assay [9] were 52 µM, more than 100 µM and more than 100 µM, respectively.

For the molecule `NC(=O)/N=C/c1c(O)c2ccccc2oc1=O`, the TGI in assay [1], in assay [10], in assay [2], in [3], in assay [4] and in [5] was more than 100 µM each time. Also, the TGI in assay [6], in assay [7], in assay [8] and in assay [9] was more than 100 µM each time.

On to `COC(=O)c1c(O)ccc2c1c1c(n2Cc2cccc(C)c2)C(=O)c2ccccc2C1`, for which the TGI was 10.4 µM in assay [1]; 31 µM in assay [10]; 25.3 µM in assay [2]; more than 75 µM in assay [3]; more than 75 µM in [4]; more than 75 µM in [5]. In addition, the TGI in assay [6], in assay [7], in assay [8] and in assay [9] was more than 75 µM throughout.
